Laboratory results taken from publication PMC3618516, “A Systematic Screen of FDA-Approved Drugs for Inhibitors of Biological Threat Agents” (PLoS ONE, 2013).
Where two headings read alike, the source gives them in different places.

Columns and labels:
[1] = system: LASV GP-pseudotyped vesicular stomatitis virus; assay: microbe, parasite or virus in culture; type: cell-based, Lassa virus
LASV = type: cell-based, Lassa virus
[2] = system: MARV GP-pseudotyped vesicular stomatitis virus; assay: microbe, parasite or virus in culture; type: cell-based, Marburg virus; conditions: Vesicular stomatitis virus; for EC50: read-out: EC50, MARV Entry; for EC90: read-out: EC90, MARV Entry
[3] = system: EBOV GP-pseudotyped vesicular stomatitis virus; assay: microbe, parasite or virus in culture; type: cell-based, Ebola virus; conditions: Zaire ebolavirus; for EC50: read-out: EC50, EBOV Entry; for EC90: read-out: EC90, EBOV Entry
EBOV [4] = type: cell-based, Ebola virus
EBOV [5] = assay: microbe, parasite or virus in culture; type: cell-based, Ebola virus; conditions: Zaire ebolavirus; for EC50: read-out: EC50, EBOV Replication; for EC90: read-out: EC90, EBOV Replication
MARV = assay: organism not typed; type: cell-based, Marburg virus; conditions: for EC50: read-out: EC50, MARV Replication; for EC90: read-out: EC90, MARV Replication
[6] = system: EBOV virus-like particles; type: cell-based, Ebola virus
EBOV [7] = type: cell-based, Ebola virus; remark: listed apart in the source
[8] = mouse, in vivo
in vivo = conditions: male, Balb/c, mouse, ip, 90 mg/kg
Bacillus anthracis [9] = assay: microbe, parasite or virus in culture; type: cell-based; conditions: J774.A1, 15 h, read-out: Bacillus anthracis ICR (% protection)
Bacillus anthracis [10] = type: cell-based; conditions: 50 µM
Francisella tularensis [11] = assay: microbe, parasite or virus in culture; type: cell-based; conditions: J774.A1, 15 h, read-out: Fransciella tularensis ICR (% protection)
Francisella tularensis [12] = type: cell-based; conditions: 50 µM
Coxiella burnetii = assay: microbe, parasite or virus in culture; type: cell-based; conditions: Vero, 168 h, read-out: Coxiella burnetii ICR (% protection)
Bacillus anthracis [13] = system: Bacillus anthracis; parameters: species or system Balb/c mice; conditions: in vivo
[14] = cited from earlier work
[15] = Vesicular stomatitis virus, HEK-293T, 50 µM, read-out: LASV VPEN (% activity)
[16] = HEK-293T, read-out: MASV VPEN (% activity)
[17] = HEK-293T, read-out: EBOV VPEN (% activity)

CCN(CC)CCCC(C)Nc1ccnc2cc(Cl)ccc12 (stereo not drawn) [Chloroquine]
inhibition at 50 µM [1, 15]: 34% | LASV VR (LASV; 50 µM): − | inhibition at 50 µM [2, 16]: 97% | EC50 [2]: 5.5 µM | EC90 [2]: 24 µM | inhibition at 50 µM [3, 17]: 97% | EC50 [3]: 4.7 µM | EC90 [3]: 43 µM | EBOV VR (EBOV [4]; 50 µM): + | EC50 (EBOV [5]): 16 µM | EC90 (EBOV [5]): 25 µM | EC50 (MARV): 15 µM | EC90 (MARV): 21 µM | effect on number of VLPs bound per cell [6]: no significant difference in binding | co-localization of virus particles with EEA1 / LAMP1 (EBOV [7]): most particles were now associated with EEA1 and very few particles were co-localized with LAMP1 | Apparent Css ([8]; male, Balb/c): ~ 2.5 μg/ml | apparent steady state concentration ([8]; male, Balb/c): 2,500 ng/mL | time to apparent steady state after initiating treatment ([8]; male, Balb/c): 35 to 40 h | survival of mice on repeat dosing (tolerability) [8]: all mice survived | AUC (in vivo): 23000 ng·h/mL | Tmax (in vivo): 0.5 h | half-life (in vivo): ~7 h | Cmax (in vivo; Cmax): 5330 ng/mL

CCN(CCO)CCCC(C)Nc1ccnc2cc(Cl)ccc12 (stereo not drawn) [HCQ, Hydroxychloroquine]
EC50 [2]: 9.8 µM | EC90 [2]: 52 µM | EC50 [3]: 9.5 µM | EC90 [3]: 85 µM | EC50 (EBOV [5]): 22 µM | EC90 (EBOV [5]): 32 µM | EC50 (MARV): 18 µM | EC90 (MARV): 19 µM | effect on number of VLPs bound per cell [6]: no significant difference in binding

CCn1cc(C(=O)O)c(=O)c2cc(F)c(N3CCNC(C)C3)c(F)c21 (stereo not drawn) [Lomefloxacin]
inhibition at 50 µM (Bacillus anthracis [9]): 95% | Bacillus anthracis Broth (% protection) (Bacillus anthracis [10]): + | inhibition at 50 µM (Francisella tularensis [11]): 98% | Fransciella tularensis Broth (% protection) (Francisella tularensis [12]): + | inhibition of growth at 50 µM (Coxiella burnetii): 100% | efficacy in preventing mouse death following BA infection (rank) (Bacillus anthracis [13]): most efficacious drug | maximum concentration (Cmax) ([14]; following a 400 mg dose in humans): 2000 to 4000 ng/mL | bioavailability ([14]; humans): 95–98%

CCN(CC)Cc1cc(Nc2ccnc3cc(Cl)ccc23)ccc1O [Amodiaquine]
inhibition at 10 µM ([1]; Vesicular stomatitis virus, HEK-293T, 10 µM, read-out: LASV VPEN (% activity)): 51% | LASV VR (LASV; 10 µM): − | inhibition at 10 µM ([2]; HEK-293T, 10 µM, read-out: MASV VPEN (% activity)): 97% | EC50 [2]: 2.3 µM | EC90 [2]: 6.5 µM | inhibition at 10 µM ([3]; HEK-293T, 10 µM, read-out: EBOV VPEN (% activity)): 99% | EC50 [3]: 2.6 µM | EC90 [3]: 8 µM | EBOV VR (EBOV [4]; 10 µM): − | EC50 (EBOV [5]): 8.4 µM | EC90 (EBOV [5]): 17 µM | EC50 (MARV): 8.3 µM | EC90 (MARV): 16 µM | effect on number of VLPs bound per cell [6]: no significant difference in binding

CC[C@H]1OC(=O)[C@H](C)[C@@H](O[C@H]2C[C@@](C)(OC)[C@@H](O)[C@H](C)O2)[C@H](C)[C@@H](O[C@@H]2O[C@H](C)C[C@H](N(C)C)[C@H]2O)[C@](C)(O)C[C@@H](C)[C@@H]2N[C@@H](COCCOC)O[C@H]([C@H]2C)[C@]1(C)O [Dirithromycin]
inhibition at 50 µM (Bacillus anthracis [9]): 92% | Bacillus anthracis Broth (% protection) (Bacillus anthracis [10]): + | inhibition at 50 µM (Francisella tularensis [11]): 88% | Fransciella tularensis Broth (% protection) (Francisella tularensis [12]): + | inhibition of growth at 50 µM (Coxiella burnetii): 0% | LASV VPEN (% activity) ([1]; 50 µM): no activity | inhibition at 50 µM [1, 15]: -11% | LASV VR (LASV; 50 µM): − | inhibition at 50 µM [2, 16]: 91% | inhibition at 50 µM [3, 17]: 99% | EBOV VR (EBOV [4]; 50 µM): − | protection of mice against BA infection (% of the mice) (Bacillus anthracis [13]; mouse): 20%

CCn1cc(C(=O)O)c(=O)c2cc(F)c(N3CCNCC3)cc21 [Norfloxacin]
inhibition at 50 µM (Bacillus anthracis [9]): 105% | Bacillus anthracis Broth (% protection) (Bacillus anthracis [10]): + | inhibition at 50 µM (Francisella tularensis [11]): 83% | Fransciella tularensis Broth (% protection) (Francisella tularensis [12]): + | inhibition of growth at 50 µM (Coxiella burnetii): 0% | Cmax ([14]; humans, dose not given): 2000 ng/mL
